Compound	melting point [°C]
CCN(C)/C=N/c1cc(C)c(C(=O)Nc2ccccc2)cc1C	147 to 149
CCN(C)/C=N/c1cc(C)c(C(=O)n2ccc3cc(C(F)(F)F)ccc32)cc1C	89 to 92
